Tests used:
Experiment in all cases: relative viability (nuclei count vs DMSO), 5 days (fraction); higher = more cells survive
Everolimus + Crizotinib = compound: CO[C@H]1C[C@@H]2CC[C@@H](C)[C@@](O)(O2)C(=O)C(=O)N2CCCC[C@H]2C(=O)O[C@H]([C@H](C)C[C@@H]2CC[C@@H](OCCO)[C@H](OC)C2)CC(=O)[C@H](C)/C=C(\C)[C@@H](O)[C@@H](OC)C(=O)[C@H](C)C[C@H](C)/C=C/C=C/C=C/1C [Everolimus] + C[C@@H](Oc1cc(-c2cnn(C3CCNCC3)c2)cnc1N)c1c(Cl)ccc(F)c1Cl [Crizotinib] (partner 1 µM)
Summary of the method: (§1)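 For relative viability, nuclei counts in treated wells were divided by those in vehicle wells. Lung cancer cell lines had been pin-tool dosed in 1536-well plates the day after seeding and cultured for 5 days, then fixed and stained in one step (final 0.05% Triton X-100, 1% formaldehyde, 1 ug/ml Hoechst) and imaged at 4×. Doses were one drug alone or a fixed anchor-drug dose plus five library-drug doses (not always all listed) in √10 steps, and values are duplicate-plate medians.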

Everolimus + Dasatinib = compound: CO[C@H]1C[C@@H]2CC[C@@H](C)[C@@](O)(O2)C(=O)C(=O)N2CCCC[C@H]2C(=O)O[C@H]([C@H](C)C[C@@H]2CC[C@@H](OCCO)[C@H](OC)C2)CC(=O)[C@H](C)/C=C(\C)[C@@H](O)[C@@H](OC)C(=O)[C@H](C)C[C@H](C)/C=C/C=C/C=C/1C [Everolimus] + Cc1nc(Nc2ncc(C(=O)Nc3c(C)cccc3Cl)s2)cc(N2CCN(CCO)CC2)n1 [Dasatinib] (partner 0.075 µM)
Summary of the method: as §1

Everolimus + Navitoclax = compound: CO[C@H]1C[C@@H]2CC[C@@H](C)[C@@](O)(O2)C(=O)C(=O)N2CCCC[C@H]2C(=O)O[C@H]([C@H](C)C[C@@H]2CC[C@@H](OCCO)[C@H](OC)C2)CC(=O)[C@H](C)/C=C(\C)[C@@H](O)[C@@H](OC)C(=O)[C@H](C)C[C@H](C)/C=C/C=C/C=C/1C [Everolimus] + CC1(C)CCC(c2ccc(Cl)cc2)=C(CN2CCN(c3ccc(C(=O)NS(=O)(=O)c4ccc(N[C@H](CCN5CCOCC5)CSc5ccccc5)c(S(=O)(=O)C(F)(F)F)c4)cc3)CC2)C1 [Navitoclax] (partner 0.5 µM)
Summary of the method: as §1

Everolimus + Vorinostat = compound: CO[C@H]1C[C@@H]2CC[C@@H](C)[C@@](O)(O2)C(=O)C(=O)N2CCCC[C@H]2C(=O)O[C@H]([C@H](C)C[C@@H]2CC[C@@H](OCCO)[C@H](OC)C2)CC(=O)[C@H](C)/C=C(\C)[C@@H](O)[C@@H](OC)C(=O)[C@H](C)C[C@H](C)/C=C/C=C/C=C/1C [Everolimus] + O=C(CCCCCCC(=O)Nc1ccccc1)NO [Vorinostat] (partner 1 µM)
Summary of the method: as §1

Cell Line	relative viability (Everolimus + Crizotinib; first compound 0.01 µM)	relative viability (Everolimus + Crizotinib; first compound 0.03162 µM)	relative viability (Everolimus + Crizotinib; first compound 0.1 µM)	relative viability (Everolimus + Crizotinib; first compound 0.3162 µM)	relative viability (Everolimus + Crizotinib; first compound 1 µM)	relative viability (Everolimus + Dasatinib; first compound 0.01 µM)	relative viability (Everolimus + Dasatinib; first compound 0.03162 µM)	relative viability (Everolimus + Dasatinib; first compound 0.1 µM)	relative viability (Everolimus + Dasatinib; first compound 0.3162 µM)	relative viability (Everolimus + Dasatinib; first compound 1 µM)	relative viability (Everolimus + Navitoclax; first compound 0.01 µM)	relative viability (Everolimus + Navitoclax; first compound 0.03162 µM)	relative viability (Everolimus + Navitoclax; first compound 0.1 µM)	relative viability (Everolimus + Navitoclax; first compound 0.3162 µM)	relative viability (Everolimus + Navitoclax; first compound 1 µM)	relative viability (Everolimus + Vorinostat; first compound 0.01 µM)	relative viability (Everolimus + Vorinostat; first compound 0.03162 µM)	relative viability (Everolimus + Vorinostat; first compound 0.1 µM)	relative viability (Everolimus + Vorinostat; first compound 0.3162 µM)	relative viability (Everolimus + Vorinostat; first compound 1 µM)
H3255	0.575	0.505	0.498	0.555	0.527	0.35	0.266	0.332	0.239	0.335	0.252	0.23	0.188	0.167	0.148	0.474	0.82	0.47	0.446	0.549
EPLC-272H	0.68	0.573	0.542	0.512	0.601	0.235	0.266	0.213	0.227	0.276	0.996	0.697	0.598	0.602	0.673	0.512	0.306	0.289	0.336	0.305
PC-3 [JPC-3]	1.02	0.992	0.911	0.96	1.02	0.93	0.77	0.797	0.669	0.675	0.763	0.676	0.577	0.664	0.568	0.693	0.498	0.54		0.566
NCI-H1793						0.23	0.256	0.209	0.214	0.162	0.285	0.165	0.247	0.258	0.184	0.344	0.288	0.322	0.356	0.251
EKVX	0.718	0.656	0.684	0.721	0.75	0.539	0.435	0.419	0.366	0.287	0.542	0.75	0.505	0.514	0.654	0.72	0.567	0.429	0.451	0.425
ChaGo-K-1	1.04	1.2	1.07	1.02	1.14	0.523	0.565	0.532	0.521	0.61	1.01	0.558	0.951	0.837	1.01	0.678	0.688	0.62	0.662	0.726
NCI-H23	0.486	0.33	0.288	0.398	0.359	0.406	0.371	0.386	0.391	0.484	0.556	0.424	0.44	0.544	0.557	0.373	0.31	0.432	0.369	0.35
EMC-BAC-2	0.562	0.546	0.485	0.504	0.535	0.24	0.242	0.189	0.219	0.278	0.9	0.806	0.619	0.736	0.61	0.278	0.267	0.299		0.292
LOU-NH91	0.664	0.695	0.627	0.573	0.58	0.486	0.467	0.476	0.434	0.449	0.53	0.59	0.473	0.524	0.496	0.809	0.653	0.744	0.727	0.764
LU99A	0.415	0.413	0.35	0.451	0.351	0.452	0.499	0.439	0.284	0.35	0.409	0.503	0.406	0.412	0.421	0.367	0.371	0.325	0.311	0.471
NCI-H1395						0.345	0.396	0.395	0.358	0.336	1.06	0.886	0.857	0.83	0.763	0.549	0.33	0.505	0.478	0.58
NCI-H460	0.783	0.738	0.808	0.845	0.872	0.38	0.38	0.323	0.203	0.298	0.998	1.11	0.704	1.1	0.779	0.621	0.617	0.486	0.625	0.372
201T	0.945	0.984	0.926	0.962	0.977	0.592	0.595	0.521	0.547	0.519	1	1.09	1.05	1.07	1.03	0.844	0.908	0.81	0.806	0.809
NCI-H1944	0.82	0.878	0.751	0.827	0.697	0.179	0.193	0.157	0.184	0.157	0.697	0.668	0.555	0.628	0.571	0.373	0.376	0.315	0.44	0.336
NCI-H2405	0.792	0.693	0.683	0.696	0.659	0.207	0.211	0.183	0.182	0.209	0.672	0.63	0.53	0.662	0.452	0.696	0.679	0.652	0.606	0.75

— the supplement of paper PMC10307832
